# According to patent publication US12161722B2, “Bifunctional heterocyclic compound having BTK degradation function via ubiquitin proteasome pathway, and use thereof” (KOREA RESEARCH INSTITUTE OF CHEMICAL TECHNOLOGY, priority 2021, dated 2024):
# Target: T1, WT BTK protein (Homo sapiens, UniProt Q06187)
# T1 construct: measured for intracellular BTK protein levels by Western blotting; endogenous in cells; host or cells: TMD-8 or RAMOS cells
# Test: BTK protein degradation assay (Western blotting), WT BTK
# Type: cell-based
# Conditions: concentration range accounting for 50% degradation of WT BTK protein, TMD-8 or RAMOS cells, 24 hours
# Method in brief: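 TMD-8 cells (1×10^6 cells/mL) treated 24 h with compound serial dilutions, then lysed in RIPA. Equal protein loads analysed by Western blot for BTK with GAPDH/β-actin as loading controls; activity binned by concentration giving 50% WT BTK degradation.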
# T1 sequence (Q06187 whole entry): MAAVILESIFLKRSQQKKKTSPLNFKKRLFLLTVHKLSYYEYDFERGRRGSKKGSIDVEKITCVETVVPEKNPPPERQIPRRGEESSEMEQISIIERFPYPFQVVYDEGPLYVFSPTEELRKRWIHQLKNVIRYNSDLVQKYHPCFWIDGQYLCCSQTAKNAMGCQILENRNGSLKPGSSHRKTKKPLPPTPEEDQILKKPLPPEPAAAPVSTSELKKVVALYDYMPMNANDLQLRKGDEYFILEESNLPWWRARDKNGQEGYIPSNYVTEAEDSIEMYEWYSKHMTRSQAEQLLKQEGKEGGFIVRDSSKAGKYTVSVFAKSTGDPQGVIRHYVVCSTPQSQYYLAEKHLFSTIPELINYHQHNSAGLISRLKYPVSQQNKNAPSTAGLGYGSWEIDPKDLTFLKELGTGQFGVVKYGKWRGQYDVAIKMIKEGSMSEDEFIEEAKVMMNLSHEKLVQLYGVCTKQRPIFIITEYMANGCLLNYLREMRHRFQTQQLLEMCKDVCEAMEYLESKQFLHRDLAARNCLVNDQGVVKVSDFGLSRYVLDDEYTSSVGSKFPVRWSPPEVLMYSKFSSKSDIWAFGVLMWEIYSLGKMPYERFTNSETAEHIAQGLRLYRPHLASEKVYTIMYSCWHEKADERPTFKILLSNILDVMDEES
row,Structure (SMILES),DC50 [nM]
1,"Cc1cccc(C)c1Nc1nn(C)c2nc(Nc3ccc4c(c3)CN(CC3CN(C(=O)CNc5ccc6c(c5)C(=O)N(C5CCC(=O)NC5=O)C6=O)C3)CC4)ncc12 (centres unmarked) [Compound 51, 5-((2-(3-((7-((3-((2,6-Dimethylphenyl)amino)-1-methyl-1H-pyrazolo[3,4-d]pyrimidin-6-yl)amino)-3,4-dihydroisoquinolin-2 (1H)-yl)methyl)azetidin-1-yl)-2-oxoethyl)amino)-2-(2,6-dioxopiperidin-3-yl)isoindoline-1,3-dione]",0.1 to 10
2,"Cc1cccc(C)c1Nc1nn(C)c2nc(Nc3ccc4c(c3)CN(C(=S)C3CCN(C(=O)COc5ccc6c(c5)C(=O)N(C5CCC(=O)NC5=O)C6=O)CC3)CC4)ncc12 (centres unmarked) [Compound 236, 5-(2-(4-(7-((3-((2,6-dimethylphenyl)amino)-1-methyl-1H-pyrazolo[3,4-d]pyrimidin-6-yl)amino)-1,2,3,4-tetrahydroisoquinoline-2-carbonothioyl)piperidin-1-yl)-2-oxoethoxy)-2-(2,6-dioxopiperidin-3-yl)isoindoline-1,3-dione]",0.1 to 10
3,"Cc1cccc(C)c1Nc1nn(C)c2nc(Nc3ccc4c(c3)CN(C(=O)/C(C#N)=C/C3CCN(C(=O)CNc5ccc6c(c5)C(=O)N(C5CCC(=O)NC5=O)C6=O)CC3)CC4)ncc12 (centres unmarked) [Compound 260, (E)-2-(7-((3-((2,6-Dimethylphenyl)amino)-1-methyl-1H-pyrazolo[3,4-d]pyrimidin-6-yl)amino)-1,2,3,4-tetrahydroisoquinoline-2-carbonyl)-3-(1-((2-(2,6-dioxopiperidin-3-yl)-1,3-dioxoisoindolin-5-yl)glycyl)piperidin-4-yl)acrylonitrile]",0.1 to 10
4,"Cc1cccc(C)c1Nc1nn(C)c2nc(Nc3ccc(C4CCN(C(=O)C5(F)CCN(c6cc7c(cc6F)C(=O)N(C6CCC(=O)NC6=O)C7=O)CC5)CC4)cc3)ncc12 (centres unmarked) [Compound 254, 5-(4-(4-(4-((3-((2,6-dimethylphenyl)amino)-1-methyl-1H-pyrazolo[3,4-d]pyrimidin-6-yl)amino)phenyl)piperidine-1-carbonyl)-4-fluoropiperidin-1-yl)-2-(2,6-dioxopiperidin-3-yl)-6-fluoroisoindoline-1,3-dione]",10 to 1000
5,"Cc1cccc(C)c1Nc1nn(C)c2nc(Nc3ccc4c(c3)CN(CC3CCN(c5ccc(C(=O)NC6CCC(=O)NC6=O)nc5)CC3)CC4)ncc12 (centres unmarked) [Compound 137, 5-(4-((7-((3-((2,6-Dimethylphenyl)amino)-1-methyl-1H-pyrazolo[3,4-d]pyrimidin-6-yl)amino)-3,4-dihydroisoquinolin-2 (1H)-yl)methyl)piperidin-1-yl)-N-(2,6-dioxopiperidin-3-yl)picolinamide]",0.1 to 10
6,"Cc1cccc(C)c1Nc1nn(C)c2nc(Nc3cnc(N4CCN(CC5CCN(c6ccc7c(c6)C(=O)N(C6CCC(=O)NC6=O)C7=O)CC5)CC4)nc3)ncc12 (centres unmarked) [Compound 171, 5-(4-((4-(5-((3-((2,6-Dimethylphenyl)amino)-1-methyl-1H-pyrazolo[3,4-d]pyrimidin-6-yl)amino)pyrimidin-2-yl)piperazin-1-yl)methyl)piperidin-1-yl)-2-(2,6-dioxopiperidin-3-yl)isoindoline-1,3-dione]",0.1 to 10
7,"Cc1cccc(C)c1Nc1nn(C)c2nc(Nc3ccc(CCNC(=O)C4CCN(CC(=O)Nc5ccc6c(c5)C(=O)N(C5CCC(=O)NC5=O)C6=O)CC4)cc3)ncc12 (centres unmarked) [Compound 101, N-(4-((3-((2,6-dimethylphenyl)amino)-1-methyl-1H-pyrazolo[3,4-d]pyrimidin-6-yl)amino)phenethyl)-1-(2-((2-(2,6-dioxopiperidin-3-yl)-1,3-dioxoisoindolin-5-yl)amino)-2-oxoethyl)piperidine-4-carboxamide]",10 to 1000
8,"Cc1cc(F)ccc1Nc1nn(C)c2nc(Nc3ccc4c(c3)CN(CC3CCN(c5ccc6c(c5)C(=O)N(C5CCC(=O)NC5=O)C6=O)CC3)CC4)ncc12 (centres unmarked) [Compound 121, 2-(2,6-Dioxopiperidin-3-yl)-5-(4-((7-((3-((4-fluoro-2-methylphenyl)amino)-1-methyl-1H-pyrazolo[3,4-d]pyrimidin-6-yl)amino)-3,4-dihydroisoquinolin-2 (1H)-yl)methyl)piperidin-1-yl)isoindoline-1,3-dione]",10 to 1000
